According to ChEMBL document CHEMBL4325823 (Medchemcomm, 2018):
In brackets after ≈: the same amount, converted by molar mass.

Key:
Bacteroides sp. = experiment: Antibacterial activity against Bacteroides sp.; format: functional
[1] = Inhibition of Enterobacteriaceae PBP2 by Bocillin FL-based fluorescence assay
Enterobacteriaceae [2] = experiment: Inhibition of ESBL in Enterobacteriaceae assessed as potentiation of piperacillin-induced antibacterial activity by measuring piperacillin MIC at 2 ug/ml by agar dilution method
Enterobacteriaceae [3] = experiment: Inhibition of ESBL in Enterobacteriaceae assessed as potentiation of cefepime-induced antibacterial activity by measuring cefepime MIC at 2 ug/ml by agar dilution method
Enterobacteriaceae [4] = experiment: Inhibition of ESBL in Enterobacteriaceae assessed as potentiation of aztreonam-induced antibacterial activity by measuring aztreonam MIC at 2 ug/ml by agar dilution method
Enterobacteriaceae [5] = experiment: Inhibition of KPC in Enterobacteriaceae assessed as potentiation of piperacillin-induced antibacterial activity by measuring piperacillin MIC at 2 ug/ml by agar dilution method
Enterobacteriaceae [6] = experiment: Inhibition of KPC in Enterobacteriaceae assessed as potentiation of cefepime-induced antibacterial activity by measuring cefepime MIC at 2 ug/ml by agar dilution method
Enterobacteriaceae [7] = experiment: Inhibition of KPC in Enterobacteriaceae assessed as potentiation of aztreonam-induced antibacterial activity by measuring aztreonam MIC at 2 ug/ml by agar dilution method
Enterobacteriaceae [8] = experiment: Inhibition of OXA in Enterobacteriaceae assessed as potentiation of piperacillin-induced antibacterial activity by measuring piperacillin MIC at 2 ug/ml by agar dilution method
Enterobacteriaceae [9] = experiment: Inhibition of OXA in Enterobacteriaceae assessed as potentiation of cefepime-induced antibacterial activity by measuring cefepime MIC at 2 ug/ml by agar dilution method
Enterobacteriaceae [10] = experiment: Inhibition of OXA in Enterobacteriaceae assessed as potentiation of aztreonam-induced antibacterial activity by measuring aztreonam MIC at 2 ug/ml by agar dilution method
Enterobacteriaceae [11] = experiment: Inhibition of KPC in Enterobacteriaceae assessed as potentiation of meropenem-induced antibacterial activity by measuring meropenem MIC at 2 ug/ml by agar dilution method (reference value: 8.43 ug/ml)
Enterobacteriaceae [12] = experiment: Inhibition of MBL in Enterobacteriaceae assessed as potentiation of aztreonam-induced antibacterial activity by measuring aztreonam MIC at 2 ug/ml by agar dilution method (reference value: 4.68 ug/ml)

| MIC90 (Bacteroides sp.) | IC50 [1] | MIC (Enterobacteriaceae [2]) | MIC (Enterobacteriaceae [3]) | MIC (Enterobacteriaceae [4]) | MIC (Enterobacteriaceae [5]) | MIC (Enterobacteriaceae [6]) | MIC (Enterobacteriaceae [7]) | MIC (Enterobacteriaceae [8]) | MIC (Enterobacteriaceae [9]) | MIC (Enterobacteriaceae [10]) | MIC (Enterobacteriaceae [11]) | MIC (Enterobacteriaceae [12]) | SMILES |
| --- | --- | --- | --- | --- | --- | --- | --- | --- | --- | --- | --- | --- | --- |
| ≤ 1 mg/L |  |  |  |  |  |  |  |  |  |  |  |  | C[C@@H](O)[C@H]1C(=O)N2C(C(=O)O)=C(SCCNC=N)C[C@H]12 [IMIPENEM ANHYDROUS] |
|  | 0.12 mg/L (≈ 0.37 µM) | < 1 mg/L | < 1 mg/L | < 1 mg/L | < 1 mg/L | < 1 mg/L | < 1 mg/L | < 1 mg/L | < 1 mg/L | < 1 mg/L | < 1 mg/L | 0.072 mg/L | NCCONC(=O)[C@@H]1CC[C@@H]2CN1C(=O)N2OS(=O)(=O)O [NACUBACTAM] |
